According to patent US11118109B2, “Organic luminogens” (THE HONG KONG UNIVERSITY OF SCIENCE AND TECHNOLOGY, priority 2017, dated 2021):

What was measured:
[1] = LogP (Table 1); format: physicochemical
[2] = system: HeLa cells; assay: Cell imaging of living HeLa cells by confocal microscopy, co-staining with MitoTracker Green FM and NucRed Live; format: cell-based; conditions: incubation 60 min at 37° C.
Procedure: For cell culturing, HeLa cells were cultured in MEM containing 10% FBS and antibiotics (100 units/mL penicillin and 100 µg/mL streptomycin) in a 5% CO2 humidity incubator at 37° C. All culture mediums supplemented with 10% heat-inactivated FBS, 100 units/mL penicillin and 100 µg/mL streptomycin. Before experiment, the cells were precultured until confluence was reached.
For cell imaging, HeLa cells were grown overnight on a 35 mm petri dish with a cover slip at 37° C. After the removal of the medium, the adherent cells were washed twice with 1× phosphate buffered saline (PBS) buffer. 4MOTPO were then added to the chamber. After incubation for 1 h, then washed and incubated with MitoTracker® Green FM and NucRed® Live for 10 min, followed by further washing three times with 1×PBS buffer. The cells were imaged on Zeiss laser scanning confocal microscope and analyzed using ZEN 2009 software.
4MOTPO was tested in living HeLa cells to test the efficacy of the compound as a biosensor for bioimaging. Cells were incubated with 4MOTPO for 60 min at 37° C. and then washed and incubated with MitoTracker® Green FM and NucRed® Live for 10 min, followed by further washing.

With COc1ccc(-[n+]2c(-c3ccccc3)oc(-c3ccccc3)c2-c2ccccc2)cc1 [1MOTPO] as the compound, how does the logP [1] read?
The logP was 1.02.

For COc1ccc(-c2oc(-c3ccccc3)[n+](-c3ccc(OC)cc3)c2-c2ccc(OC)cc2)cc1 [3MOTPO], which logP [1] is on record?
The logP was 1.29.

What does the source list for COc1ccc(-c2oc(-c3ccc(OC)cc3)[n+](-c3ccc(OC)cc3)c2-c2ccc(OC)cc2)cc1 [4MOTPO]?
logP [1]: 1.35; subcellular localisation versus MitoTracker Green FM and NucRed Live ([2]; co-staining 10 min): can accumulate in mitochondria; fluorescence observed in cells (intracellular distribution) ([2]; confocal microscopy): intense blue fluorescence was observed in the cellular cytoplasms
